The values that follow come from EP4556465A1, “NOVEL BICYCLIC PD-L1 INHIBITORS, PREPARATION METHODS THEREFOR AND MEDICINAL USES THEREOF” (priority 2022, dated 2024).

Series [1] relates to SD rats. The series is described as follows: Acute toxicity test, single oral gavage. Type of series: in vivo. The following applies: 500 mg/kg, 1000 mg/kg and 2000 mg/kg. How it is done: (§1) • Animal species and number: SD rats; 6 rats in each group (half male and half female); Mode of administration: oral gavage; […]; • Administration frequency: administration once.
(§2) Side-cage observation on the day of administration (D1): frequency and time of observation: side-cage observation of acute toxicity reactions was performed for 4 h after administration of animals in each group, and detailed clinical observations were performed on animals with apparent abnormal manifestations. Mortality, morbidity, respiration, secretion, feces, and diet, water drinking, etc. were observed, and changes in body weight of rats during administration were recorded. Detailed clinical observations include, but are not limited to, behavioral activities, skin, hair, eyes, ears, noses, abdomens, external genitalia, anuses, limbs, feet, and breathing. The animals in each group were euthanized at the end of the observation period, and all animals were dissected and gross observed.

Series [2] in a line: Acute toxicity test, single oral gavage. Type of series: in vivo. The note with it: both sexes, rat, in vivo, po, SD rats, read-out: maximum tolerated dose (MTD). On the procedure:
as §1, §2

Series [3] concerns breast cancer tumor cells 4T1. The note with it: 10 mg/kg, i.g., QD×21 days; for Tumor inhibition rate / tumor-inhibiting efficacy: 4T1 subcutaneous tumor. On the procedure:
Subsequently, each group of animals was dosed, and the day of first administration was defined as test day 1; • Administration frequency: once a day; • General state observations: observation time and frequency: once a day; observation indicators or content: including, but not limited to, local administration of the animals, appearance signs, general behavioral activity, mental status, death, and other abnormal manifestations. The animals were euthanized at the end of the test. • Calculation of tumor volume: V=1/2×long diameter×short diameter^2 (mm^3).

The test system of series [4] is SD rats. The series is described as follows: Safety test after repeated administration for 14 days. Type of series: in vivo. The following applies: oral gavage 300 mg/kg once a day for 14 days. On the procedure: • Animal species and number: SD rats; 6 rats in each group (half male and half female); Mode of administration: oral gavage; […]; • Administration frequency: administration once a day for 14 days.
as §2, with “Side-cage” for “Side-cage observation on the day of administration (D1): frequency and time of observation: side-cage”, “administration,” for “administration of animals in each group,”, “manifestations. General clinical observations included observation twice a day during the test (observation once in the morning and observation once in the afternoon).” for “manifestations.”, “administration,” for “the observation period,”

The target of the next series is T1, hPD-1/hPD-L1 (Homo sapiens, UniProt Q9NZQ7).
T1 construct: purchased CISBIO
The series is described as follows: PD-1/PD-L1 binding assay kit (CISBIO), HTRF assay of PD-1/PD-L1 protein-protein interaction. The following applies: for inhibitory activity of PD-1/PD-L1 protein-protein interaction compared with BMS-202: HTRF, comparison with BMS-202. How it is done: Experimental objective: the activity of the compounds of formula (I) to inhibit the PD-1/PD-L1 interaction was tested by using a PD-1/PD-L1 binding assay kit (CISBIO).
Experimental principle: HTRF (Homogeneous Time-Resolved Fluorescence) is a technique used to detect substances to be tested in pure liquid phase systems. It primarily utilizes energy transfer of two fluorescent groups, which are divided into an energy donor europium (Eu^+) and an energy acceptor. When the donor is externally excited (e.g., a flash lamp or laser), the energy can be resonantly transferred to the acceptor if the donor is close enough to the acceptor, and the acceptor is excited at a specific wavelength. By using the HTRF technology, the assay enables simple and rapid characterization of compounds and antibody blockers in a high-throughput format. By using anti-Tag1 labeled with Eu^+ (Europium) (the HTRF energy donor) and anti-Tag2 labeled with XL665 (the HTRF energy acceptor), the interaction between PD-L1 and PD-1 can be detected. PD-L1 protein and PD-1 protein are labeled with Tag1 and Tag2, respectively, and Eu^+ and XL665 bind to PD-L1 and PD-1, respectively, through antibodies to form complexes. […] This specific signal is directly proportional to the degree of PD1/PD-L1 interaction.
Experimental materials: kit: PD-1/PD-L1 binding assay kits purchased from CISBIO; and 96-well plate: purchased from CISBIO.
Test instrument: Perkin Elmer, model: EnVision.
Test compounds: the compounds in formula (I).
Experimental procedure: PD-1/PD-L1 binding assay kits were used. […] The plates were sealed by using microplate sealers, centrifuging was performed at 1000 rpm for 1 min, and incubation was performed at room temperature for 15 min. The Anti-Tag-Eu^3+ and Anti-tag-XL665 which were diluted with Buffer were then mixed in equal volumes, then 10 µL of the mixed solution was added to each well, the sealed plates were centrifuged at 1000 rpm for 1 min, and incubation was performed at room temperature for 2 h. […] IC50 of the compounds was calculated by using Graphpad.
In general terms: In TR-FRET formats the signal depends on donor and acceptor labels being close together.

T1 sequence (Q9NZQ7 19-238 limits assumed): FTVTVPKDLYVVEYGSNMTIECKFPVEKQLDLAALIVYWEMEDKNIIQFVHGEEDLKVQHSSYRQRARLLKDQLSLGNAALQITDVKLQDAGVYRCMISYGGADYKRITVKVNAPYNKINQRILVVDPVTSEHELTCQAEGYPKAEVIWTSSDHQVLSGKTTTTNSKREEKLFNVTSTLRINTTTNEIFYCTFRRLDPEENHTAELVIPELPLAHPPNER

Broadly, the MTD is the highest dose tested that stayed within the study's limit of toxicity. Regarding `O=C(O)CN1CCc2nc(OCc3cccc(-c4ccccc4F)c3Cl)ccc2C1` [I-D-26, 2-(2-((2-chloro-2'-fluoro-[1,1'-biphenyl]-3-yl)methoxy)-7,8-dihydro-1,6-naphthyridin-6(5H)-yl)acetic acid], in the series with SD rats [1], the “gross observation, test sample-related changes” value is on record as “No test sample-related changes were observed grossly” and the mortality or moribundity result was “No mortality or moribundity was observed”. Besides, the MTD in series [2] is at least 2000 mg/kg. In series [3], the Tumor inhibition rate result was “+++ ("+++" indicates a tumor inhibition rate of more than 60%)” and the tumor-inhibiting efficacy entry was “significant tumor-inhibiting efficacy”. Further, the “clinical observations (water intake, food intake, activity, body weight)” value (“clinical observations” below) in the series on SD rats [4] was “normal water intake and food intake, normal activity, and normal body weight, with no significant abnormalities”.

In general, IC50 refers to the midpoint of a concentration-inhibition curve. As to `OCCN1CCc2nc(OCc3cccc(-c4ccccc4F)c3Cl)ccc2C1` [I-D-18, 2-(2-((2-chloro-2'-fluoro-[1,1'-biphenyl]-3-yl)methoxy)-7,8-dihydro-1,6-naphthyridin-6(5H)-yl)ethan-1-ol], in the series on SD rats [1], the “gross observation, test sample-related changes” value was “No test sample-related changes were observed grossly” and the mortality or moribundity entry is given as “No mortality or moribundity was observed”. For the same compound, in series [3], the “general state of tumor-bearing animals during administration (water and food intake, activity, body weight, toxicity)” value was “normal water intake and food intake, normal activity, normal body weight, and no toxicity manifestations”; the Tumor inhibition rate result is reported as “+++ ("+++" indicates a tumor inhibition rate of more than 60%)”; the tumor-inhibiting efficacy entry is recorded as “significant tumor-inhibiting efficacy”. For the same compound, the “clinical observations” value in the series with SD rats [4] was “normal water intake and food intake, normal activity, and normal body weight, with no significant abnormalities”. In addition, at hPD-1/hPD-L1, the half-maximal inhibitory concentration (IC50) came to 16.3 nM and the “inhibitory activity of PD-1/PD-L1 protein-protein interaction compared with BMS-202” value is on record as “superior to that of the compound BMS-202”.

For the compound `Fc1ccccc1-c1cccc(COc2ccc3c(n2)CCNC3)c1Cl` [I-D-27, 2-((2-chloro-2'-fluoro-[1,1'-biphenyl]-3-yl)methoxy)-5,6,7,8-tetrahydro-1,6-naphthyridine], in the series with SD rats [1], the “gross observation, test sample-related changes” value was “No test sample-related changes were observed grossly” and the mortality or moribundity result is on record as “No mortality or moribundity was observed”. The MTD in series [2] was at least 2000 mg/kg. In addition, in series [3], the “general state of tumor-bearing animals during administration (water and food intake, activity, body weight, toxicity)” value is “normal water intake and food intake, normal activity, normal body weight, and no toxicity manifestations”; the Tumor inhibition rate entry is reported as “+++ ("+++" indicates a tumor inhibition rate of more than 60%)”; the tumor-inhibiting efficacy entry is given as “significant tumor-inhibiting efficacy”. Besides, the “clinical observations” value with SD rats [4] was “normal water intake and food intake, normal activity, and normal body weight, with no significant abnormalities”. On hPD-1/hPD-L1, the IC50 worked out at 10.1 nM and the “inhibitory activity of PD-1/PD-L1 protein-protein interaction compared with BMS-202” value is reported as “superior to that of the compound BMS-202”.
